Laboratory results published in US20240060999A1, “BLOOD COAGULATION INSPECTION METHOD” (FUJIMORI KOGYO CO., LTD, priority 2020, published 2024).

Test system: whole blood
Experiment: ROTEM whole blood coagulation with rabbit brain-derived tissue thromboplastin (TP) + Ca 12 mM (CTI 20 μg/mL, PKSI-527 40 μM where stated)
Assay type: cell-based
[1] = Ex11, TP 16.6 μg/mL+Ca+CTI+PKSI-527, heparan sulfate 1 μg/mL, no rTM
[2] = Ex11, TP 16.6 μg/mL+Ca+CTI+PKSI-527, heparan sulfate 1 μg/mL, rTM 50 μM (title: 50 nM)
[3] = Ex11, TP 16.6 μg/mL+Ca+CTI+PKSI-527, heparan sulfate 3 μg/mL, no rTM
[4] = Ex11, TP 16.6 μg/mL+Ca+CTI+PKSI-527, heparan sulfate 3 μg/mL, rTM 50 μM (title: 50 nM)
[5] = Ex11, TP 16.6 μg/mL+Ca+CTI+PKSI-527, heparan sulfate 10 μg/mL, no rTM
[6] = Ex11, TP 16.6 μg/mL+Ca+CTI+PKSI-527, heparan sulfate 10 μg/mL, rTM 50 μM (title: 50 nM)
[7] = Ex11, TP 16.6 μg/mL+Ca+CTI+PKSI-527, heparan sulfate 15 μg/mL, no rTM
[8] = Ex11, TP 16.6 μg/mL+Ca+CTI+PKSI-527, heparan sulfate 15 μg/mL, rTM 50 μM (title: 50 nM)
[9] = Ex11, TP 16.6 μg/mL+Ca+CTI+PKSI-527, heparan sulfate 20 μg/mL, no rTM
[10] = Ex11, TP 16.6 μg/mL+Ca+CTI+PKSI-527, heparan sulfate 20 μg/mL, rTM 50 μM (title: 50 nM)
[11] = Ex11, TP 16.6 μg/mL+Ca+CTI+PKSI-527, heparan sulfate 30 μg/mL, no rTM
[12] = Ex11, TP 16.6 μg/mL+Ca+CTI+PKSI-527, heparan sulfate 30 μg/mL, rTM 50 μM (title: 50 nM)
[13] = Ex12, TP 16.6 μg/mL+Ca+CTI+PKSI-527, heparan sulfate 5 μg/mL, no rTM
[14] = Ex12, TP 16.6 μg/mL+Ca+CTI+PKSI-527, heparan sulfate 5 μg/mL, rTM 100 μM (title: 100 nM)
[15] = Ex13, TP 0.033 μg/mL+Ca+CTI+PKSI-527, heparan sulfate 0.5 μg/mL, no rTM
[16] = Ex13, TP 0.033 μg/mL+Ca+CTI+PKSI-527, heparan sulfate 0.5 μg/mL, rTM 9 μM (title: 9 nM)
[17] = Ex14, TP 0.033 μg/mL+Ca+CTI+PKSI-527, heparan sulfate 0.1 μg/mL, no rTM
[18] = Ex14, TP 0.033 μg/mL+Ca+CTI+PKSI-527, heparan sulfate 0.1 μg/mL, rTM 10 nM
[19] = Ex14, TP 0.033 μg/mL+Ca+CTI+PKSI-527, heparan sulfate 0.2 μg/mL, no rTM
[20] = Ex14, TP 0.033 μg/mL+Ca+CTI+PKSI-527, heparan sulfate 0.2 μg/mL, rTM 10 nM
[21] = Ex14, TP 0.033 μg/mL+Ca+CTI+PKSI-527, heparan sulfate 0.3 μg/mL, no rTM
[22] = Ex14, TP 0.033 μg/mL+Ca+CTI+PKSI-527, heparan sulfate 0.3 μg/mL, rTM 10 nM
[23] = Ex14, TP 0.033 μg/mL+Ca+CTI+PKSI-527, heparan sulfate 0.4 μg/mL, no rTM
[24] = Ex14, TP 0.033 μg/mL+Ca+CTI+PKSI-527, heparan sulfate 0.4 μg/mL, rTM 10 nM
[25] = Ex14, TP 0.033 μg/mL+Ca+CTI+PKSI-527, heparan sulfate 0.5 μg/mL, no rTM
[26] = Ex14, TP 0.033 μg/mL+Ca+CTI+PKSI-527, heparan sulfate 0.5 μg/mL, rTM 10 nM
[27] = Ex15, TP 0.033 μg/mL+Ca+CTI+PKSI-527, heparan sulfate 0.1 μg/mL, no rTM
[28] = Ex15, TP 0.033 μg/mL+Ca+CTI+PKSI-527, heparan sulfate 0.1 μg/mL, rTM 5 nM
[29] = Ex15, TP 0.033 μg/mL+Ca+CTI+PKSI-527, heparan sulfate 0.2 μg/mL, no rTM

**Q.** How did the “clotting time (CT)” value (Ex3/Ex9, TP 0.9 μg/mL+Startem, heparan sulfate 1 μg/mL, rTM 20 nM) turn out when Heparan sulfate was run?
**A.** 319 s

**Q.** And the “clotting time (CT)” value (Ex4, TP 0.9 μg/mL+Ca+CTI+PKSI-527, heparan sulfate 1 μg/mL, no rTM)?
**A.** 162 s

**Q.** And the “clotting time (CT)” value (Ex9, TP 0.9 μg/mL+Startem, heparan sulfate 1 μg/mL, no rTM)?
**A.** 154 s

**Q.** And the “clotting time (CT)” value (Ex10, TP 0.45 μg/mL+Startem, heparan sulfate 1 μg/mL, no rTM)?
**A.** 251 s

**Q.** And the “CFT (clot formation time)” value [1]?
**A.** 93 s

**Q.** What about the “CT (clotting time)” value [1] of the same substance?
**A.** 58 s

**Q.** What about the “CFT (clot formation time)” value [2] of the same substance?
**A.** 72 s

**Q.** What about the “CT (clotting time)” value [2] of the same substance?
**A.** 55 s

**Q.** What about the “CFT (clot formation time)” value [3] of the same substance?
**A.** 93 s

**Q.** What about the “CT (clotting time)” value [3] of the same substance?
**A.** 62 s

**Q.** And the “CFT (clot formation time)” value [4]?
**A.** 73 s

**Q.** What about the “CT (clotting time)” value [4] of the same substance?
**A.** 62 s

**Q.** What about the “CFT (clot formation time)” value [5] of the same substance?
**A.** 55 s

**Q.** What about the “CT (clotting time)” value [5] of the same substance?
**A.** 94 s

**Q.** What about the “CFT (clot formation time)” value [6] of the same substance?
**A.** 95 s

**Q.** And the “CT (clotting time)” value [6]?
**A.** 143 s

**Q.** What about the “CFT (clot formation time)” value [7] of the same substance?
**A.** 66 s

**Q.** What about the “CT (clotting time)” value [7] of the same substance?
**A.** 120 s

**Q.** What about the “CFT (clot formation time)” value [8] of the same substance?
**A.** 255 s

**Q.** What about the “CT (clotting time)” value [8] of the same substance?
**A.** 255 s

**Q.** And the “CFT (clot formation time)” value [9]?
**A.** 61 s

**Q.** What about the “CT (clotting time)” value [9] of the same substance?
**A.** 144 s

**Q.** What about the “CFT (clot formation time)” value [10] of the same substance?
**A.** No CFT

**Q.** And the “CT (clotting time)” value [10]?
**A.** No CT

**Q.** What about the “CFT (clot formation time)” value [11] of the same substance?
**A.** 69 s

**Q.** What about the “CT (clotting time)” value [11] of the same substance?
**A.** 193 s

**Q.** What about the “CFT (clot formation time)” value [12] of the same substance?
**A.** No CFT

**Q.** And the “CT (clotting time)” value [12]?
**A.** No CT

**Q.** And the blood clotting time (Ex11, TP 16.6 μg/mL+Ca+CTI+PKSI-527, heparan sulfate 20 or 30 μg/mL, rTM 50 nM)?
**A.** ≥ 1 h

**Q.** What about the “CFT (clot formation time)” value [13] of the same substance?
**A.** 76 s

**Q.** What about the “CT (clotting time)” value [13] of the same substance?
**A.** 65 s

**Q.** What about the “CFT (clot formation time)” value [14] of the same substance?
**A.** 69 s

**Q.** What about the “CT (clotting time)” value [14] of the same substance?
**A.** 96 s

**Q.** What about the “CFT (clot formation time)” value [15] of the same substance?
**A.** 248 s

**Q.** And the “CT (clotting time)” value [15]?
**A.** 837 s

**Q.** What about the “CFT (clot formation time)” value [16] of the same substance?
**A.** 1484 s

**Q.** And the “CT (clotting time)” value [16]?
**A.** 1355 s

**Q.** And the “CFT (clot formation time)” value [17]?
**A.** 182 s

**Q.** And the “CT (clotting time)” value [17]?
**A.** 572 s

**Q.** And the “CFT (clot formation time)” value [18]?
**A.** 240 s

**Q.** What about the “CT (clotting time)” value [18] of the same substance?
**A.** 797 s

**Q.** And the “CFT (clot formation time)” value [19]?
**A.** 224 s

**Q.** What about the “CT (clotting time)” value [19] of the same substance?
**A.** 686 s

**Q.** And the “CFT (clot formation time)” value [20]?
**A.** 215 s

**Q.** And the “CT (clotting time)” value [20]?
**A.** 829 s

**Q.** And the “CFT (clot formation time)” value [21]?
**A.** 171 s

**Q.** What about the “CT (clotting time)” value [21] of the same substance?
**A.** 688 s

**Q.** And the “CFT (clot formation time)” value [22]?
**A.** 290 s

**Q.** What about the “CT (clotting time)” value [22] of the same substance?
**A.** 802 s

**Q.** And the “CFT (clot formation time)” value [23]?
**A.** 206 s

**Q.** What about the “CT (clotting time)” value [23] of the same substance?
**A.** 762 s

**Q.** What about the “CFT (clot formation time)” value [24] of the same substance?
**A.** 733 s

**Q.** And the “CT (clotting time)” value [24]?
**A.** 1360 s

**Q.** And the “CFT (clot formation time)” value [25]?
**A.** 248 s

**Q.** What about the “CT (clotting time)” value [25] of the same substance?
**A.** 837 s

**Q.** What about the “CFT (clot formation time)” value [26] of the same substance?
**A.** 660 s

**Q.** And the “CT (clotting time)” value [26]?
**A.** 1266 s

**Q.** And the “CFT (clot formation time)” value [27]?
**A.** 182 s

**Q.** And the “CT (clotting time)” value [27]?
**A.** 572 s

**Q.** And the “CFT (clot formation time)” value [28]?
**A.** 230 s

**Q.** What about the “CT (clotting time)” value [28] of the same substance?
**A.** 711 s

**Q.** What about the “CFT (clot formation time)” value [29] of the same substance?
**A.** 224 s

**Q.** And the “CT (clotting time)” value [29]?
**A.** 686 s

**Q.** And the “CFT (clot formation time)” value (Ex15, TP 0.033 μg/mL+Ca+CTI+PKSI-527, heparan sulfate 0.2 μg/mL, rTM 5 nM)?
**A.** 209 s
